Experiments:
Cdc4^WD40 [1] = molecular target: T1, Cdc4^WD40 (Saccharomyces cerevisiae, UniProt P07834); assay: Isothermal titration calorimetry (ITC) with Cdc4^WD40; parameters: species or system yeast; details: 20 °C, cell 30 μM Cdc4^WD40, syringe 100 μM pSic1 or 200 μM SCF-I2, 50 mM Na2HPO4 pH 7.2, 150 mM NaCl, 2 mM β-mercaptoethanol, single-site model, repeated twice, read-out: Kd value for binding Cdc4^WD40 (ITC)
T1 sequence (P07834 367-744): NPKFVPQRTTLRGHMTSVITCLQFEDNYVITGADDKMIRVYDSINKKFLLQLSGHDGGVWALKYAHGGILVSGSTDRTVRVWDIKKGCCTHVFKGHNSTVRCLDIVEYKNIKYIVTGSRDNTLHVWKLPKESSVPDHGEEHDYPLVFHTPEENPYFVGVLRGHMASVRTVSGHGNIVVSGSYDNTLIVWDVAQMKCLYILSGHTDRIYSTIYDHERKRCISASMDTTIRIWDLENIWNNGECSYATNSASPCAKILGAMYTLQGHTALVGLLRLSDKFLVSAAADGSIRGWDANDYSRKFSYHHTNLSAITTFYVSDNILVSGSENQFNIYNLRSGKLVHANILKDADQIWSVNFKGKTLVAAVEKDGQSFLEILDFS
Source text: We determined the effects of substrate binding on the isolated WD40 domain of Cdc4 (Cdc4^WD40), which is more amenable to NMR due to its size (40 kDa) than the minimal Cdc4-Skp1 complex (∼70 kDa). The N-terminal targeting region of Sic1 (residues 1-90, called Sic1^1-90), which contains 7 of the 9 Sic1 CPD sites and is sufficient for Cdc4 binding, was phosphorylated to completion by Cln2-Cdc28-Cks1 kinase (called pSic1). We used isothermal titration calorimetry (ITC) to determine the affinity of Cdc4^WD40 for pSic1 and SCF-I2 (Supplementary Fig. 1a–c). […] The Kd value for SCF-I2 binding Cdc4^WD40 was 0.6±0.02 μM, concordant with the ∼2 μM Ki value determined for SCF-I2-Cdc4-Skp1 by a fluorescence polarization competition assay.
ITC experiments were performed using VP-ITC and iTC200 microcalorimeters (MicroCal Inc., Northampton, MA) at 20 °C with the sample cell containing 30 μM Cdc4^WD40 and the syringe loaded with 100 μM pSic1 or 200 μM SCF-I2. The samples were dialysed in buffer containing 50 mM Na2HPO4, pH 7.2, 150 mM NaCl, 2 mM β-mercaptoethanol. Runs were performed using 13–20 injections at an interval of 120 s and each binding experiment was repeated twice. Using the Origin software provided by MicroCal Inc., heat associated with each injection was integrated and thermodynamic parameters were extracted by fitting the data to a single-site binding model.

Skp1-Cdc4 complex = Skp1-Cdc4 complex (Saccharomyces cerevisiae, UniProt P07834+P52286); assay: Fluorescence polarization inhibition by SCF-I2 of Ash1 peptide binding to Skp1-Cdc4; parameters: species or system yeast; details: compared with Ash1^18pT286/pT290 or Ash1^18pT286/pT290/pS294 peptides
Source text: (f) Fluorescence polarization of the fluorescein-labelled Ash1 peptides (circle, pT286/pT290/pS294, square, pT286/pT290, triangle, pT290/pS294, inverted triangle doubly phosphorylated CycE peptide) in the presence of increasing concentrations of the recombinant Skp1-Cdc4 complex (mP, millipolarization unit). (g) Fluorescence polarization of the fluorescein-labelled Ash1 peptides (circle, pT286/pT290/pS294, square, pT286/pT290, triangle, pT290/pS294, inverted triangle, doubly phosphorylated CycE peptide) in the presence of increasing concentrations of the SCF-I2 inhibitor.
Fluorescence polarization assays containing 0.21 μM Skp1-Cdc4 complex and 10 nM fluorescently labelled cyclin E-derived or Ash1-derived phosphopeptides in 10 mM HEPES (pH 7.5), 40 mM NaCl, 0.1 mg ml^−1 BSA and 1 mM DTT in a final volume of 23.5 μl per well were performed on an Analyst HT plate reader (Molecular Devices Corp., Sunnyvale CA).

Cdc4-Skp1 = details: read-out: Ki value for SCF-I2-Cdc4-Skp1 by fluorescence polarization competition assay; cited from earlier work
Cdc4^WD40 [2] = molecular target: T1, Cdc4^WD40; details: compared to a singly phosphorylated high-affinity CPD of similar affinity for Cdc4; cited from earlier work
Source text: The phenomenon of allostery, whereby ligand binding at one site alters interactions at a physically distant site, allows for complex control of protein function. […] SCF-I2 elicits this allosteric effect through structural changes that occlude the P−2 region of the CPD pocket.

Chain of Skp1-Cdc4 complex (P07834 whole entry): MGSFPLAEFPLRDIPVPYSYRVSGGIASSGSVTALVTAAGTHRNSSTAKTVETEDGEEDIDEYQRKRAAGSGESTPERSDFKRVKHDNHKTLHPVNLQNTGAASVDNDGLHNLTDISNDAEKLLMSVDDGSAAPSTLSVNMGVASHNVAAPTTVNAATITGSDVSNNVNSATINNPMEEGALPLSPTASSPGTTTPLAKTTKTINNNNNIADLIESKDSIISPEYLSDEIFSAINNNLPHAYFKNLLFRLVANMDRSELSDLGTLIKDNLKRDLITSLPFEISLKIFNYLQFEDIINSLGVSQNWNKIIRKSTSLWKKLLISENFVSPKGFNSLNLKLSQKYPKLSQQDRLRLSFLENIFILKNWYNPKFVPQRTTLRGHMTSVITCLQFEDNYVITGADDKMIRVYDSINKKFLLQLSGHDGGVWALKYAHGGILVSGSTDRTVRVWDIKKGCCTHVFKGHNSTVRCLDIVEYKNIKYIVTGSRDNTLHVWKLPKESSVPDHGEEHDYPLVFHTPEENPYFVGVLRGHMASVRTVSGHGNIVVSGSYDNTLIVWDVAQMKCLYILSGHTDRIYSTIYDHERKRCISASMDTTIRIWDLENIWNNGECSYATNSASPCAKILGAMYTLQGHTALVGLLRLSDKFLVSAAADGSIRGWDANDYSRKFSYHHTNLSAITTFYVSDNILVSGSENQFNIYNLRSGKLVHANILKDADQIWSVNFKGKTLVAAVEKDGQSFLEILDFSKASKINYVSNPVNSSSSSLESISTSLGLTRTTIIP
Chain of Skp1-Cdc4 complex (P52286 whole entry partner): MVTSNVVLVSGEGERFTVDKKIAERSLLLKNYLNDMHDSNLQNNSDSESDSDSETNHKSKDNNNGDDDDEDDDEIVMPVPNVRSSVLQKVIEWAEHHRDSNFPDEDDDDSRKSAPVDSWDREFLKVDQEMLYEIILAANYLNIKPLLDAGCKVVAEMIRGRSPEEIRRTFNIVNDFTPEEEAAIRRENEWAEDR

## O=C(O)c1ccc2ccccc2c1-c1c(C(=O)O)ccc2ccccc12 [SCF-I2]
Cdc4^WD40 [1]
  Kd: 600 ± 20 nM
Skp1-Cdc4 complex
  fold higher potency of SCF-I2 for inhibiting Ash1^18pT290/pS294 binding: 10 fold
Cdc4-Skp1
  Ki: ~2000 nM
Cdc4^WD40 [2]
  fold lower potency of SCF-I2 towards full-length Sic1: 10 fold

Reference: PMC5216119, “An allosteric conduit facilitates dynamic multisite substrate recognition by the SCF^Cdc4 ubiquitin ligase” (Nature Communications, 2017)
